# Data reported in patent US9365597B2, “Mitochondria-targeted inhibitors of cytochrome c peroxidase for protection from apoptosis” (Brock University, priority 2011, dated 2016).
# Test: Hydrolysis of TPP-IOA by cytosol and mitochondrial fractions of mouse embryonic cells (HPLC)
# Format: in vitro ADME
# Method: Incubations were carried out in 0.1 M phosphate buffer (pH 7.0) for 25 min at 37° C.; and reaction was stopped with CH3CN denatured proteins were centrifuged, and the supernatant was subjected to HPLC analysis. The volume of samples was 1 ml.
# To test this, assessments of esterase activity of mitochondria and cytosolic fractions isolated from mouse embryonic cells were performed based on HPLC measurements of TPP-IOA (FIG. 4). […] Thus, both TPP-IOA and its de-esterifed form, IOA, could be present in mitochondria of mouse embryonic cells.
smiles,measurement,setting,value
CCCCCCC(C/C=C\CCCCCCCC(=O)OCCC[P+](c1ccccc1)(c1ccccc1)c1ccccc1)n1ccnc1.[Br-] (centres unmarked) [TPP-IOA],hydrolysis rate in mitochondria,"1 mg protein/ml, pH 7.0, 37° C.",comparable to that in the cytosolic fraction
same,hydrolysis of the ester bond by endogenous esterases,mitochondria and cytosol of mouse embryonic cells,hydrolysis of TPP-IOA takes place in both mitochondria and the cytosol
